# Values of other authors as cited in EP1550371A2, “Pesticidal compositions comprising an oxathiin and triazole fungicides” (Tovarystvo z obmegenoyu vidpovidalnistyu "Prezence", priority 2003, dated 2005).
# Tests used:
# powdery mildew and rust = conditions: in experiments
# rats [1] = conditions: in rats
# mice = conditions: in mice
# quails = conditions: in quails
# rats [2] = conditions: in rats; remark: listed apart in the source
# [3] = at 25 °C
# rabbits = conditions: in rabbits
Structure (SMILES),Protective systemic action against powdery mildew and rust (powdery mildew and rust),oral LD50 (rats [1]),oral LD50 (mice),oral LD50 (quails),skin-resorbtive toxicity (rats [2]),Solubility in acetone [3],Solubility in dimethylsulfoxide [3],Solubility in ethyl alcohol [3],Solubility in gasoline [3],Solubility in methyl alcohol [3],Solubility in water [3],skin-resorptive LD50 (rabbits)
CC(C)(C)C(O)C(Oc1ccc(Cl)cc1)n1cncn1 (stereo not shown) [Triadimenol],4 to 8 days,700 to 1500 mg/kg,1300 mg/kg,10000 mg/kg,above 5 g/kg,,,,,,,
"CC(C)(C)C(O)(CCc1ccc(Cl)cc1)Cn1cncn1 (stereo not shown) [Tebuconazol, RS-1-(4-chlorophenyl)-4,4-dimethyl-3-(1H-1,2,4-triazol-1-ilmethyl) pentan-3-ol]",,3900 to 5000 mg/kg,1600 to 3900 mg/kg,,above 5 g/kg,,,,,,,
"CC1=C(C(=O)Nc2ccccc2)SCCO1 [Carboxin, 5,6-dihydro-2-methyl-1,4-oxathiin-3-carboxanyl]",,3800 mg/kg,,,,60%,150%,21%,15%,21%,0.017%,above 8 g/kg
